Data reported in patent US20240124428A1, “HETEROCYCLIC INHIBITORS OF PCSK9” (CARDIO THERAPEUTICS PTY LTD, priority 2020, published 2024).

What was measured:
hERG channel = biological target: T1, hERG channel (Homo sapiens, UniProt Q12809); assay: hERG assay (automated QPatch); format: cell-based; settings: CHO cells expressing hERG channels
T1 construct: expressed in transfected cells; host or cells: CHO
Method: A CHO cell line stably transfected with hERG cDNA and expressing hERG channels was used. Cells used in the QPatch all met the following criteria: under microscopy examination, the majority of cells in suspension were single and isolated, their viability was greater than 95%, cell density ranged between 3-8×10^6 cells/mL in the final suspension before applying to the QPatch stir chamber. Cells were used within 4 hours of harvesting. Whole-cell recordings were performed using automated QPatch (Sophion Bioscience, Denmark). The cells were voltage clamped at a holding potential of −80 mV. The hERG current was activated by depolarising at +20 mV for 5 seconds, after which the current was taken back to −50 mV for 2.5 seconds to remove the inactivation and observe the outward tail current. The maximum amount of tail current was used to determine hERG current amplitude.

[1] = Dedicated pharmacokinetic study, single oral dose; format: in vivo, C57BL/6 mice; settings: plasma; for Cmax / Tmax / AUC(0-t): female, C57BL/6, mouse, mice; for Cmax / Tmax: PO 50 mg/kg study; for AUC(0-t): route and dose not given (PO 50 mg/kg study); for bioavailability: mouse, PO dose of 50 mg/kg, female C57BL/6 mice
Method: For dedicated pharmacokinetic analyses of compounds 29, 122 and 131, C57BL/6 mice (19-21 g, 10-12 weeks, female, purchased from Jihui Laboratory Animal Co. LTD) were given free access to food and water throughout the in-life phase of the study. Mice were orally dosed once with 50 mg/kg (10 mL/kg) of either compound 29, 122 and 131 with each compound formulated in 90% saline, 5% Solutol HS15 and 5% DMSO. At designated time points following dosing (t=0.083, 0.25, 0.5, 1, 2, 4, 8 and 24 h), the animals were restrained manually and ˜110 μL of blood/time point was collected into pre-cooled EDTA-K2 tubes via the facial vein. Blood samples were put on wet ice, then centrifuged at 2000 g for 5 min (4° C.) to obtain plasma within 15 min after sample collection. Plasma samples were subsequently stored at approximately −70° C. until analysis. Each sample was assayed for levels of 29, 122 and 131 by LC/MS/MS using a Triple Quadruple (6500+) system operating in a positive electrospray ionisation mode.
The mean plasma concentration-time profiles from dedicated pharmacokinetic analyses of compound 29, 122 and 131 are shown in FIG. 5A-C. Mice were orally dosed once with either 50 mg/kg of (A) compound 29, (B) compound 122 or (C) compound 131.

APOE*3-Leiden.CETP mice = assay: In vivo efficacy study: compound 29 monotherapy; settings: for reduction of total plasma cholesterol levels compared to the vehicle control: over a period of four weeks
Method: Female APOE*3-Leiden.CETP mice (˜10-14 weeks old) were obtained from the SPF breeding stock at TNO-Metabolic Health Research (Leiden).
Mice were housed in macrolon cages (maximum of 6 mice per cage) in clean-conventional animal rooms (relative humidity 50-60%, temperature ˜21° C., light cycle 7 am to […]). Mice were fed a semi-synthetic western type diet with 15% saturated fat and 0.15% (w/w) cholesterol and were provided with heat-sterilized tap water and food ad libitum.
Forty female APOE*3-Leiden.CETP mice were allowed to acclimate to these conditions for a 3 week run-in period prior to the removal of 8 low-responder mice. […] In the final week of the run-in diet, all mice received vehicle solution (5% DMSO, 5% Solutol HS15, 90% saline) twice daily by oral gavage to accustom the animals to the procedure. After matching, mice received vehicle solution only (Group 1) or compound 29 in vehicle solution (Groups 2, 3 and 4) for the remainder of the study by twice daily administration using oral gavage in a volume of 5 mL/kg body weight. On days 0, 3, 7, 14, 21 and 28 of treatment, blood samples were taken after 4 h of fasting, from which EDTA plasma was collected and used for measurement of plasma total cholesterol. Lipoprotein profiles were determined on day 0, 14 and 28 in group pooled plasma samples using an equal volume of plasma per mouse. On day 28, directly after the last blood sampling point, mice were sacrificed via CO2 asphyxiation, fasted. At sacrifice, EDTA-plasma samples were obtained via heart puncture.
EDTA plasma blood samples were obtained after 4 h fasting. Animals were placed under a red light lamp for at least 10 minutes. The tail was fixed and the mice were allowed to move freely during blood collection and were not fixed to avoid additional stress. […]
Total plasma cholesterol and triglyceride levels were determined using a […] from Roche.
Analyses were performed in samples pooled per group. Cholesterol levels were measured using a “Cholesterol CHOD-PAP” kit from Roche.

T1 sequence (Q12809 whole entry): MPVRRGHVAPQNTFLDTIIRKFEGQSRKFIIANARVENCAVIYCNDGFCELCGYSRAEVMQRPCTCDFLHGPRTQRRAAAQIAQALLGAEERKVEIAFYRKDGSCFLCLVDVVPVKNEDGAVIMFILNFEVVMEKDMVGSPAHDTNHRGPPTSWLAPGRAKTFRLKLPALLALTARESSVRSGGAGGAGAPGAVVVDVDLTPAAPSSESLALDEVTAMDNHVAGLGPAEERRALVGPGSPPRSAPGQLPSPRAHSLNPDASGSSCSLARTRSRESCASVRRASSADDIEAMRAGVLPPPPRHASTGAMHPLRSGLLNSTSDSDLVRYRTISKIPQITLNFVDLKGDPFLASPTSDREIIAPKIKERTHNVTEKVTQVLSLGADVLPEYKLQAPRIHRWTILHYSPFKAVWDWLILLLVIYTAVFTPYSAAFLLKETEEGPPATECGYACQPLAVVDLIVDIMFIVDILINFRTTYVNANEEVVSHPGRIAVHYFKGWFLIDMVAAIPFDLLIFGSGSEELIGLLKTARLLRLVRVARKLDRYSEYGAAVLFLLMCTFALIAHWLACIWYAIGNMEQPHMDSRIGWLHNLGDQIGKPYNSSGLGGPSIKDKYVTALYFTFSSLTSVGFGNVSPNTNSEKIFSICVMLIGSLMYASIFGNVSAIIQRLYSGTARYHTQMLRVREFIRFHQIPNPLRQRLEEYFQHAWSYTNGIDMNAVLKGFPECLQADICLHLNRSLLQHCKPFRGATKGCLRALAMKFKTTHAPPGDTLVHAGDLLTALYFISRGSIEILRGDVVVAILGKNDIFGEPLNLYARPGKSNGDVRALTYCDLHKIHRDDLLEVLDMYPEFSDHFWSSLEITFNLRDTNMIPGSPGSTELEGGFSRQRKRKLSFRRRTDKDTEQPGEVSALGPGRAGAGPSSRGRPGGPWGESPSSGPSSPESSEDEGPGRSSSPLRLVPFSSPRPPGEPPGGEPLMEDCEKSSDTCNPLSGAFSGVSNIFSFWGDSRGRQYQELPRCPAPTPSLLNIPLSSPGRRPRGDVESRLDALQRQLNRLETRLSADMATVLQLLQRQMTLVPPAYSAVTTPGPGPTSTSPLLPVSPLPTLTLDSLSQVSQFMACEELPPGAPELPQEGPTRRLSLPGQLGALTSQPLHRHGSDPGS

Compound | IC50 (hERG channel) | Cmax [1] | Tmax [1] | AUC(0-t) [1] | bioavailability [1] | plasma PCSK9 levels (APOE*3-Leiden.CETP mice; 30 and 50 mg/kg bid oral, over four weeks) | reduction of total plasma cholesterol levels compared to the vehicle control (APOE*3-Leiden.CETP mice; oral dosing 30 mg/kg) | reduction of total plasma cholesterol levels compared to the vehicle control (APOE*3-Leiden.CETP mice; oral dosing 50 mg/kg)
Cc1ccc(-c2cc(CN3CCC(F)(F)[C@H](N)C3)cc(NC(=O)c3cc(-c4ccccc4)ccn3)c2)cn1 [Compound 122] | 35.7 µM | 10800 ng/mL | 4 h | 173000 ng·h/mL | 75% |  |  | 
Cc1cn(-c2cc(CN3CCC[C@H](N)C3)cc(NC(=O)c3cc(-c4ccccc4)ccn3)c2)cn1 [compound 29, (S)—N-(3-((3-aminopiperidin-1-yl)methyl)-5-(4-methyl-1H-imidazol-1-yl)phenyl)-4-phenylpicolinamide] | 2.85 µM | 1480 ng/mL | 2 h | 8130 ng·h/mL | 40% | increase in plasma PCSK9 levels | more than 30% | > 50%
Cc1cnc(C(=O)Nc2cc(CN3CCC(F)(F)[C@H](N)C3)cc(-c3ccc(C(F)(F)F)nc3)c2)cc1-c1ccccc1 [compound 131] | 94.2 µM | 6740 ng/mL | 1 h | 98500 ng·h/mL | 54% |  |  | 
